The text below walks through data of patent publication US5179085A, “N-substituted α-amino acids and derivatives thereof having pharmaceutical activity” (Warner-Lambert Company, priority 1991, dated 1993).

Counter-ions that a name gives are not always drawn.

The target in experiment [1] is NMDA receptors. The experiment is described as follows: [3H]CPP NMDA receptor binding assay. As to conditions: for IC50: [3H]CPP displacement; for % Inhibition (10^-4 M): at 10^-4 M. How it is done: (§1) Thus, the compounds of Formula I were tested in vitro for their ability to block NMDA receptors in a binding assay with [^3 H]3-(2-carboxypiperazin-4-yl)propyl-1-phosphonic acid ([^3 H]CPP) carried out essentially by a method previously described by Murphy, D. E., et al, Journal of Pharmacology and Experimental Therapeutics, Volume 240, pp 778-784 (1987); and for their ability to inhibit glutamate-induced [Ca^++ ] influx (GCI) carried out essentially by a method previously described by Marcoux, F. W., et al, "Sigma and Phencyclidine like Compounds as Molecular Probes in Biology", pp 735-746, Domino, E. F. and J. N. Kamenka, eds., NPP Books, Ann Arbor, Michigan, 1988 and Choi, D. W., et al, Journal of Neuroscience, Volume 8, pp 185-196 (1988). The aforementioned lest methods are incorporated herein by reference.

Experiment [2] deals with glutamate-induced [Ca^++ ] influx. The experiment in a line: Inhibition of glutamate-induced [Ca++] influx (GCI). In kind it is cell-based. The method, then:
as §1

As for `O=C(O)CNCCC=CP(=O)(O)O` (mixture of isomers) [Example 10a, N-[4-Phosphono-3-butenyl)glycine, diammonium salt. (Mixture of E and Z isomers)], the IC50 (as a rule, the concentration that gives 50% inhibition) in experiment [1] was 2.45 µM.
In the case of `CC(NCC=CCP(=O)(O)O)C(=O)O.Cl` (racemic) [Example 8p, N-(4-Phosphono-2-butenyl)-DL-alanine, monohydrochloride], the “% Inhibition (10^-4 M)” value in experiment [1] is 58%.
Regarding `O=C(O)CNCc1cccc(CP(=O)(O)O)c1` [Example 8d, N-[[3-(Phosphonomethyl)phenyl]methyl]glycine, hydrochloride], the IC50 in experiment [1] is 2.24 µM; in experiment [2] it was 79 µM.
Regarding `O=C(O)CNCCc1cccc(CP(=O)(O)O)c1` [Example 8g, N-[2-[3-(Phosphonomethyl)phenyl]ethyl] glycine, monohydrochloride], the “% Inhibition (10^-4 M)” value in experiment [1] was found to be 86%.
`O=C(O)CNCc1ccc(CP(=O)(O)O)cc1` [Example 8h, N-[[4-(Phosphonomethyl)phenyl]methyl]glycine, monohydrochloride]: the IC50 in experiment [1] was 5.2 µM; in experiment [2], 120 µM.
Turning to `O=C(O)CNCC=CCP(=O)(O)O` [Example 8o, N-(4-Phosphono-2-butenyl)glycine, monohydrochloride], the IC50 in experiment [1] is 1.2 µM; in experiment [2] it was 18 µM.
